Test results taken from patent publication US20080044484A1, “Use of polymeric nanoparticles for vaccine delivery” (THE REGENTS OF THE UNIVERSITY OF CALIFORNIA, priority 2004, published 2008).

Legend:
T2 cells [1] = assay: IFNγ release by CTL (ELISA) after incubation with peptide-loaded T2 cells; format: cell-based, human; conditions: CTL elicited with the corresponding HER2/neu peptide, 20 h, 10^5 CTL/well
Description: In interferon gamma-release assays, 10^5 HER2/neu-specific CTL were co-incubated with 10^5 peptide-loaded T2 cells for 20 hours at 37° C. The concentrations of human interferon gamma in co-cultured supernatants were then determined by ELISA.

T2 cells [2] = assay: 51Cr-release assay using T2 cells pulsed with HER2/neu-derived peptides as targets for CTL; conditions: T2 pulsed with the peptide; percentage of specific lysis
Description: To probe class I presentation of cells loaded with the fusion peptides and their counterpart minimal peptides CTL recognizing the HER2/neu-derived peptides were generated. In vitro peripheral blood mononuclear cells (PBMCs) were immunized from healthy donors with these peptides in the presence of interleukin 2 and interleukin 7 using the following technique:
The next day, 12 units/ml IL-2 (Chiron) and 30 units/ml IL-7 (R & D Systems) were added to the cultures. Lymphocytes were re-stimulated weekly with peptide-pulsed autologous adherent cells as follows: First, autologous PBMC were incubated with HER2/neu peptide (10 μg/ml) for 3 h at 37° C. Nonadherent cells were then removed by a gentle wash and the adherent cells were incubated with fresh medium containing the HER2/neu peptide (10 μg/ml) for an additional 3 h at 37° C.
The induction of CTL in human PBMC was monitored in a conventional ^51Cr-labeling release assay. Briefly, peptide-pulsed TAP^−/HLA-A2.1^+ human T2 cells were incubated with 10 μg of HER2/neu peptides or the MART-1 control peptide for 90 min during labeling with ^51Cr. After washing, the target cells were added to serially diluted effectors in 96-well microplates. After a 6-h incubation at 37° C., supernatants were harvested and counted in a gamma counter. Results are expressed as the percentage of specific lysis and determined as follows: [(experimental cpm−spontaneous cpm)/(maximum cpm−spontaneous cpm)]×100.

DU145 (HLA-A2−) = assay: LDH-release cytotoxicity assay of STEAP-specific CTL against HLA-A2-negative control cell line; format: cell-based, human; conditions: CTL specific for the peptide; 4-hour LDH-release assay
Description: (§1) It was tested whether the STEAP-derived peptides can induce potent CTL capable of recognizing and killing prostate cancer cells in vitro. CTL lines selected for their ability to lyse peptide-pulsed target cells were used as effectors in LDH-release cytotoxicity assays against the cancer cell lines. The HLA-A2+ cancer cell line LnCAP was used, with the HLA-A2−negative cancer cell line DU145 as a control (Table 29).

[3] = tested on: K562-A2 cells pulsed with STEAP peptide; assay: In vitro induction of STEAP peptide-specific CTL, LDH-release cytotoxicity assay; conditions: for Percent LDH released from K562-A2 pulsed with peptide: K562-A2 pulsed with corresponding STEAP peptide 2 hours at 37° C.; for Percent LDH released from K562-A2 pulsed with peptide / Percent LDH released from K562-A2: CTL specific for the peptide, 4-hour LDH-release assay; for Induction of peptide-specific CTL: in vitro immunization of PBMC; for Percent LDH released from K562-A2: non-pulsed K562-A2 targets
LnCap (HLA-A2+) = assay: LDH-release cytotoxicity assay of STEAP-specific CTL against prostate cancer cell line; format: cell-based, human; conditions: CTL specific for the peptide; 4-hour LDH-release assay
Description: as §1

[4] = tested on: K562-A2 cells pulsed with STEAP peptide; assay: Blocking of CTL lysis with antibodies BB7.2 / IVA12, LDH-release assay; format: cell-based, human; conditions: for Percent LDH released from K562-A2 pulsed +IVA12: anti-HLA class II antibody IVA12 added to peptide-pulsed targets before 4-hour LDH-release assay; for Percent LDH released from K562-A2 pulsed +BB7.2: anti-HLA-A2 antibody BB7.2 added to peptide-pulsed targets before 4-hour LDH-release assay
Text: As an additional control the anti-HLA class II antibody IVA12 was used. With these experiments, it was confirmed that the STEAP-specific CTL can recognize and kill target cells in a class I-restricted fashion (Table 30).

[5] = tested on: breast cancer cells MDA-MB-231; assay: IFNγ release by CTL (ELISA) after incubation with peptide-loaded MDA-MB-231 cells; format: cell-based, human; conditions: CTL elicited with the corresponding HER2/neu peptide, 20 h, 10^5 CTL/well
Description: In interferon gamma release assays, 10^5 HER2/neu-specific CTL were co-incubated with 10^5 peptide-loaded tumor cells for 20 hours at 37° C. The concentration of human interferon gamma in co-cultured supernatants was then determined by ELISA.

Sequence: CLTSTVQLV (listed as Homo sapiens) [HER2/neu789-797]
- Release of IFNγ by CTL, T2 cells loaded with the peptide (T2 cells [1]; Day 1 after peptide loading): 2924 pg/mL
- Release of IFNγ by CTL, T2 cells loaded with the peptide (T2 cells [1]; Day 3 after peptide loading): 317 pg/mL
- Release of IFNγ by CTL, T2 cells loaded with the peptide (T2 cells [1]; Day 5 after peptide loading): 116 pg/mL
- Release of IFNγ by CTL, T2 cells loaded with the peptide (T2 cells [1]; Day 8 after peptide loading): 91 pg/mL
- 51Cr-release, E:T ratio 1.5:1 (T2 cells [2]): 9%
- 51Cr-release, E:T ratio 3.1 (T2 cells [2]): 22%
- 51Cr-release, E:T ratio 6:1 (T2 cells [2]): 31%
- 51Cr-release, E:T ratio 12:1 (T2 cells [2]): 52%
- 51Cr-release, E:T ratio 25:1 (T2 cells [2]): 62%
- 51Cr-release, E:T ratio 50:1 (T2 cells [2]): 83%

Sequence: FLPGVIAAI [STEAP130-138 - 1F]
- Percent LDH released from DU145 (HLA-A2−) (DU145 (HLA-A2−)): −1%
- Percent LDH released from K562-A2 pulsed with peptide [3]: 75%
- Induction of peptide-specific CTL [3]: induced potent peptide-specific CTL
- Percent LDH released from K562-A2 [3]: 4%
- Percent LDH released from LnCap (HLA-A2+) (LnCap (HLA-A2+)): 73%
- Percent LDH released from K562-A2 pulsed +IVA12 [4]: 69%
- Percent LDH released from K562-A2 pulsed +BB7.2 [4]: 2%

Sequence: FLWGVIAAV [STEAP130-138 - 1F/3W/9V]
- Percent LDH released from DU145 (HLA-A2−) (DU145 (HLA-A2−)): 1%
- Percent LDH released from K562-A2 pulsed with peptide [3]: 74%
- Induction of peptide-specific CTL [3]: induced potent peptide-specific CTL
- Percent LDH released from K562-A2 [3]: 1%
- Percent LDH released from LnCap (HLA-A2+) (LnCap (HLA-A2+)): 84%
- Percent LDH released from K562-A2 pulsed +IVA12 [4]: 75%
- Percent LDH released from K562-A2 pulsed +BB7.2 [4]: 1%

Sequence: HLYQGCQVV (listed as Homo sapiens) [HER2/neu48-56]
- Release of IFNγ by CTL, T2 cells loaded with the peptide (T2 cells [1]; Day 1 after peptide loading): 2280 pg/mL
- Release of IFNγ by CTL, T2 cells loaded with the peptide (T2 cells [1]; Day 3 after peptide loading): 488 pg/mL
- Release of IFNγ by CTL, T2 cells loaded with the peptide (T2 cells [1]; Day 5 after peptide loading): 134 pg/mL
- Release of IFNγ by CTL, T2 cells loaded with the peptide (T2 cells [1]; Day 8 after peptide loading): 177 pg/mL
- 51Cr-release, E:T ratio 1.5:1 (T2 cells [2]): 8%
- 51Cr-release, E:T ratio 3.1 (T2 cells [2]): 19%
- 51Cr-release, E:T ratio 6:1 (T2 cells [2]): 33%
- 51Cr-release, E:T ratio 12:1 (T2 cells [2]): 41%
- 51Cr-release, E:T ratio 25:1 (T2 cells [2]): 53%
- 51Cr-release, E:T ratio 50:1 (T2 cells [2]): 88%

Sequence: IISAVVGIL (listed as Homo sapiens) [HER2/neu654-662, reference compound]
- Release of IFNγ by CTL, T2 cells loaded with the peptide (T2 cells [1]; Day 1 after peptide loading): 2827 pg/mL
- Release of IFNγ by CTL, T2 cells loaded with the peptide (T2 cells [1]; Day 3 after peptide loading): 429 pg/mL
- Release of IFNγ by CTL, T2 cells loaded with the peptide (T2 cells [1]; Day 5 after peptide loading): 121 pg/mL
- Release of IFNγ by CTL, T2 cells loaded with the peptide (T2 cells [1]; Day 8 after peptide loading): 167 pg/mL
- 51Cr-release, E:T ratio 1.5:1 (T2 cells [2]): 13%
- 51Cr-release, E:T ratio 3.1 (T2 cells [2]): 26%
- 51Cr-release, E:T ratio 6:1 (T2 cells [2]): 38%
- 51Cr-release, E:T ratio 12:1 (T2 cells [2]): 59%
- 51Cr-release, E:T ratio 25:1 (T2 cells [2]): 71%
- 51Cr-release, E:T ratio 50:1 (T2 cells [2]): 91%
- Release of IFNγ by CTL, MDA-MB-231 cells loaded with the peptide ([5]; Day 1 after peptide loading): 2826 pg/mL
- Release of IFNγ by CTL, MDA-MB-231 cells loaded with the peptide ([5]; Day 3 after peptide loading): 438 pg/mL
- Release of IFNγ by CTL, MDA-MB-231 cells loaded with the peptide ([5]; Day 5 after peptide loading): 131 pg/mL
- Release of IFNγ by CTL, MDA-MB-231 cells loaded with the peptide ([5]; Day 8 after peptide loading): 147 pg/mL

Sequence: IISAVVGIL MRYMILGLLALAAVCSA (IISAVVGILMRYMILGLLALAAVCSA) [HER654-662-ES]
- Release of IFNγ by CTL, T2 cells loaded with the peptide (T2 cells [1]; Day 1 after peptide loading): 144 pg/mL
- Release of IFNγ by CTL, T2 cells loaded with the peptide (T2 cells [1]; Day 3 after peptide loading): 124 pg/mL
- Release of IFNγ by CTL, T2 cells loaded with the peptide (T2 cells [1]; Day 5 after peptide loading): 137 pg/mL
- Release of IFNγ by CTL, T2 cells loaded with the peptide (T2 cells [1]; Day 8 after peptide loading): 83 pg/mL
- Release of IFNγ by CTL, MDA-MB-231 cells loaded with the peptide ([5]; Day 1 after peptide loading): 188 pg/mL
- Release of IFNγ by CTL, MDA-MB-231 cells loaded with the peptide ([5]; Day 3 after peptide loading): 138 pg/mL
- Release of IFNγ by CTL, MDA-MB-231 cells loaded with the peptide ([5]; Day 5 after peptide loading): 135 pg/mL
- Release of IFNγ by CTL, MDA-MB-231 cells loaded with the peptide ([5]; Day 8 after peptide loading): 93 pg/mL

Sequence: IISAVVGIL MTNKCLLQIALLLCFSTTALS (IISAVVGILMTNKCLLQIALLLCFSTTALS) [HER654-662-IS]
- Release of IFNγ by CTL, T2 cells loaded with the peptide (T2 cells [1]; Day 1 after peptide loading): 111 pg/mL
- Release of IFNγ by CTL, T2 cells loaded with the peptide (T2 cells [1]; Day 3 after peptide loading): 99 pg/mL
- Release of IFNγ by CTL, T2 cells loaded with the peptide (T2 cells [1]; Day 5 after peptide loading): 121 pg/mL
- Release of IFNγ by CTL, T2 cells loaded with the peptide (T2 cells [1]; Day 8 after peptide loading): 76 pg/mL
- Release of IFNγ by CTL, MDA-MB-231 cells loaded with the peptide ([5]; Day 1 after peptide loading): 144 pg/mL
- Release of IFNγ by CTL, MDA-MB-231 cells loaded with the peptide ([5]; Day 3 after peptide loading): 102 pg/mL
- Release of IFNγ by CTL, MDA-MB-231 cells loaded with the peptide ([5]; Day 5 after peptide loading): 132 pg/mL
- Release of IFNγ by CTL, MDA-MB-231 cells loaded with the peptide ([5]; Day 8 after peptide loading): 86 pg/mL
